# Measured values from patent US6407205B1, “FSH-releasing peptides” (Board of Supervisors of Louisiana State University and …, priority 1997, dated 2002).
# “Also recorded” adds a separate entry of the source. Like-named read-outs stand apart in the source and are kept apart here. [ ]: non-standard residue; d: D form. pGlu = O=C1CC[C@@H](C(=O)O)N1
# What was measured:
# [1] = tested on: FSH release from hemi-anterior pituitaries of adult male rats; assay: FSH release in vitro, incubation with hemi-anterior pituitaries of male rats (RIA); type: cell-based, rat; details: for FSH (ng/ml) / FSH: 3 hr incubation
# Description: (§1) Adult male and female Sprague-Dawley rats (Holtzmann, Madison, Wis.; 200-250 g) were housed two per cage under controlled conditions of temperature (23-25° C.) and lighting (on from 0500 to 1700 hr). The animals had free access to a pellet diet and to tap water.
# (§2) After acclimatization for 5 or more days in the vivarium, male rats were killed by decapitation. Following removal of the posterior lobe, the anterior pituitary (AP) was bisected longitudinally, and each AP was incubated in a tube containing 0.5 ml Krebs-Ringer bicarbonate (5 mM ascorbic acid; pH 7.4) buffer (KRB) in an atmosphere of 95% O2/5% CO2 in a Dubnoff shaker (50 cycles per min) for a period of 60 min. Following this pre-incubation period, the APs were incubated for 3 hr in fresh KRB buffer alone (control), or in KRB containing one of various concentrations of synthetic mammalian (m)-LHRH, l-LHRH-III, l-LHRH-I, chicken (c)-LHRH-II, or salmon (s)-LHRH. The medium was then aspirated, and was stored frozen at −20° C. until radio-immunoassays (RIA) for FSH and LH were conducted. FSH and LH were measured using kits supplied by the National Institute of Arthritis Digestive Diabetes and Kidney Disease; hormone values were expressed in terms of NIH-rFSH-RP-2 and NIH-rLH-RP-3 standards. The experiments were repeated twice. The inter- and intra-assay coefficients of variation for FSH assays were 7.5% and 5.2%, respectively; and were 6.5% and 4.8% for LH assays.
# [2] = tested on: selective FSH-releasing activity; assay: In vivo screening of known LHRH's from various species for selective FSH-releasing activity; details: unpublished data of the applicant's laboratory
# Description: Our laboratory also screened known LHRH's from various species for selective FSH-releasing activity; and we also evaluated the activity of 25 analogs of LHRH in in vivo assays.
# [3] = tested on: LH release from hemi-anterior pituitaries of adult male rats; assay: LH release in vitro, incubation with hemi-anterior pituitaries of male rats (RIA); type: cell-based, rat; details: for LH (ng/ml) / LH: 3 hr incubation
# Description: as §1, §2
# [4] = tested on: plasma LH; assay: LH release in vivo, ovariectomized estrogen/progesterone-treated female rats, intravenous injection; design: species or system rat; details: for Change in LH from baseline, 10 minutes post-injection: saline −0.070 ± 0.122
# Description: as §1
# (§3) Female rats were ovariectomized under anesthesia with isoflurane 4 weeks prior to the in vivo experiments. Three days before blood sampling, each ovariectomized rat was injected subcutaneously with 50 μg estradiol benzoate (Sigma Chemical Co., St. Louis, Mo.) dissolved in 0.1 ml sesame oil, and 25 mg progesterone (Eli Lilly, Indianapolis, Ind.) dissolved in 0.5 ml sesame oil. One day prior to testing, each animal was implanted with a jugular-atrial catheter. On the morning of testing, polyethylene tubing (PE-50) was connected to the distal end of the jugular-atrial catheter on the rat's dorsum to facilitate blood sampling and intravenous injection. Animals were acclimatized one hour before initial blood samples were taken. Heparinized blood samples ([…]) were collected just before, and at 10, 30, and 60 minutes after injection of 0.5 ml isotonic saline or l-LHRH-III (10 or 100 pmole) in 0.5 ml isotonic saline. After removal of each blood sample, an equal volume of isotonic saline was administered to maintain blood volume.
# [5] = tested on: plasma FSH; assay: FSH release in vivo, ovariectomized estrogen/progesterone-treated female rats, intravenous injection; design: species or system rat; details: for Change in FSH from baseline, 10 minutes in post-injection (ng/ml): 10 minutes post-injection, saline −3.85 ± 0.82
# Description: as §1, §3
# [6] = tested on: Petromryzon marinus (lamprey) ovaries; details: Sower et al., Endocrinology 1993; cited from earlier work
# [7] = tested on: FSH or LH release; details: Yu et al., Brain Res. Bull. 1990; cited from earlier work
# [8] = Table 4, 10^−6M, KRB control 157.5 ± 13.2
# [9] = Table 4, 10^−7M, KRB control 157.5 ± 13.2
# [10] = Table 4, 10^−8M, KRB control 157.5 ± 13.2
# [11] = Table 5, 10^−6M, KRB control 149.3 ± 17.0
# [12] = Table 5, 10^−7M, KRB control 149.3 ± 17.0
# [13] = Table 5, 10^−8M, KRB control 149.3 ± 17.0
# [14] = Table 2, 10^−5M, KRB control 97.7 ± 20.4
# [15] = Table 2, 10^−6M, KRB control 97.7 ± 20.4
# [16] = 10 or 100 pmole intravenous, versus saline control
# [17] = Table 3, 10^−5M, KRB control 139.3 ± 16.9
# [18] = Table 3, 10^−6M, KRB control 139.3 ± 16.9
substance,measurement,setting,value
"pGlu-His-Trp-Ser-His-Gly-Trp-Tyr-Pro-Gly-NH2 (XHWSHGWYPX; HELM PEPTIDE1{[Glp].H.W.S.H.G.W.Y.P.G.[am]}$$$$V2.0; SMILES NC(=O)CNC(=O)[C@@H]1CCCN1C(=O)[C@H](Cc1ccc(O)cc1)NC(=O)[C@H](Cc1c[nH]c2ccccc12)NC(=O)CNC(=O)[C@H](Cc1c[nH]cn1)NC(=O)[C@H](CO)NC(=O)[C@H](Cc1c[nH]c2ccccc12)NC(=O)[C@H](Cc1c[nH]cn1)NC(=O)[C@@H]1CCC(=O)N1) [c-LHRH-II, reference compound]",FSH release in vitro (result in words),[1],low potency
same,FSH (ng/ml),[1]; [8],***263.7 ± 17.8 ng/ml
same,FSH,[1]; [9],209.3 ± 44.0 ng/mL
same,FSH,[1]; [10],123.7 ± 18.0 ng/mL
same,concentration significantly increasing FSH release,"[1]; Table 4 experiment, highest concentration tested",10^−6 M
same,selectivity for FSH release in vivo (result in words),[2],slight selectivity for FSH release
same,selectivity for FSH release in vivo (result in words),[2]; listed as chicken (c) LHRH-II,slightly preferential FSH-releasing activity in vivo
same,LH release in vitro (result in words),[3],equivalent LH-releasing activity to that of m-LHRH
same,LH (ng/ml),[3]; [11],*239.0 ± 31.7 ng/ml
same,LH (ng/ml),[3]; [12],*216.3 ± 17.7 ng/ml
same,LH (ng/ml),[3]; [13],*199.3 ± 13.6 ng/ml
same,LH release in vitro (result in words),[3]; listed as Chicken (c) LHRH-II,stimulated LH release
"pGlu-His-Trp-Ser-Tyr-Gly-Trp-Leu-Pro-Gly-NH2 (XHWSYGWLPX; HELM PEPTIDE1{[Glp].H.W.S.Y.G.W.L.P.G.[am]}$$$$V2.0; SMILES CC(C)C[C@H](NC(=O)[C@H](Cc1c[nH]c2ccccc12)NC(=O)CNC(=O)[C@H](Cc1ccc(O)cc1)NC(=O)[C@H](CO)NC(=O)[C@H](Cc1c[nH]c2ccccc12)NC(=O)[C@H](Cc1c[nH]cn1)NC(=O)[C@@H]1CCC(=O)N1)C(=O)N1CCC[C@H]1C(=O)NCC(N)=O) [s-LHRH, reference compound]",FSH,[1]; [8],203.2 ± 39.2 ng/mL
same,FSH (ng/ml),[1]; [9],*233.0 ± 37.4 ng/ml
same,FSH release in vitro (result in words),[1]; listed as Salmon (s)-LHRH,stimulated the release of both FSH and LH
same,FSH release in vitro (result in words),[1]; listed as Salmon LHRH,low potency
same,LH release in vitro (result in words),[3],stimulated the release of both FSH and LH
same,LH,[3]; [11],186.2 ± 13.6 ng/mL
same,LH (ng/ml),[3]; [12],*230.8 ± 38.8 ng/ml
pGlu-His-Trp-Ser-His-Asp-Trp-Lys-Pro-Gly-NH2 (XHWSHDWKPX; pyroGlu; C-terminal amide) [l-LHRH-III],FSH release in vitro (result in words),[1],approximately equipotent toward releasing FSH
same,FSH (ng/ml),"[1]; Table 2, 10^−4M, KRB control 97.7 ± 20.4",****368.6 ± 40.9 ng/ml
same,FSH (ng/ml),[1]; [14],**283.0 ± 60.8 ng/ml
same,FSH (ng/ml),[1]; [15],**278.2 ± 40.9 ng/ml
same,FSH (ng/ml),"[1]; Table 2, 10^−7M, KRB control 97.7 ± 20.4",***213.0 ± 17.9 ng/ml
same,FSH (ng/ml),"[1]; Table 2, 10^−8M, KRB control 97.7 ± 20.4",**255.7 ± 42.4 ng/ml
same,FSH (ng/ml),"[1]; Table 2, 10^−9M, KRB control 97.7 ± 20.4",*228.3 ± 52.5 ng/ml
same,concentration of maximal effect on FSH release,"[1]; Table 2 experiment, levelled off through 10^−4 M",about 10^−6 M
same,minimal effective concentration (MEC) for FSH release,"[1]; Table 2 experiment, lowest concentration tested",≤ 10^−9 M
same,FSH,[1]; [8],215.0 ± 38.0 ng/mL
same,FSH (ng/ml),[1]; [9],*203.2 ± 16.4 ng/ml
same,FSH (ng/ml),[1]; [10],*249.3 ± 31.3 ng/ml
same,FSH,"[1]; Table 4, 10^−9M, KRB control 157.5 ± 13.2",196.3 ± 21.2 ng/mL
same,MEC for a statistically significant release of FSH relative to c-LHRH-II,[1]; Table 4 experiment,two orders of magnitude lower
same,"Change in LH from baseline, 10 minutes post-injection",[4]; 10 pmole intravenous,-0.022 ± 0.078 ng/mL
same,"Change in LH from baseline, 10 minutes post-injection",[4]; 100 pmole intravenous,0.097 ± 0.077 ng/mL
same,LH release in vivo (result in words),[4]; [16],no significant increase in LH; also recorded: Neither the 10 pmole nor the 100 pmole dose of l-LHRH-III produced a statistically significant difference in LH levels
same,"Change in FSH from baseline, 10 minutes in post-injection (ng/ml)",[5]; 10 pmole intravenous,**−0.75 ± 0.37 ng/ml
same,"Change in FSH from baseline, 10 minutes in post-injection (ng/ml)",[5]; 100 pmole intravenous,**−0.43 ± 0.61 ng/ml
same,FSH release in vivo (result in words),[5]; [16],"increase in FSH in vivo (P<0.01) within ten minutes; also recorded: highly significant increase in plasma FSH 10 minutes after injection, an effect that vanished by 30 minutes post-injection; also recorded: slightly greater effect at 10 minutes that was maintained 30 minutes after injection; also recorded: caused the release of FSH in vivo, but not LH"
same,LH release in vitro (result in words),[3],much weaker effect on LH release; also recorded: no LH-releasing activity
same,LH (ng/ml),"[3]; Table 3, 10^−4M, KRB control 139.3 ± 16.9",**236.6 ± 19.3 ng/ml
same,LH (ng/ml),[3]; [17],*202.9 ± 31.2 ng/ml
same,LH (ng/ml),[3]; [18],*233.6 ± 33.8 ng/ml
same,LH,"[3]; Table 3, 10^−7M, KRB control 139.3 ± 16.9",179.9 ± 28.4 ng/mL
same,LH,"[3]; Table 3, 10^−8M, KRB control 139.3 ± 16.9",165.7 ± 26.6 ng/mL
same,LH,"[3]; Table 3, 10^−9M, KRB control 139.3 ± 16.9",171.8 ± 27.3 ng/mL
same,concentrations active on LH release,[3]; Table 3 experiment,10^−6-10^−4 M
same,LH,[3]; [11],176.0 ± 9.3 ng/mL
same,LH,[3]; [12],182.7 ± 13.7 ng/mL
same,LH,[3]; [13],163.2 ± 6.5 ng/mL
same,LH,"[3]; Table 5, 10^−9M, KRB control 149.3 ± 17.0",158.7 ± 10.2 ng/mL
same,estradiol and progesterone release from lamprey ovaries (result in words),[6],stimulated estradiol and progesterone release
"[pGlu]HWSLEWKPG-NH2 [l-LHRH-I, reference compound]",activity in releasing FSH or LH in rats (result in words),[7],relatively low activity in releasing either FSH or LH
same,FSH release in vitro (result in words),[1],small but statistically significant release of FSH; also recorded: minimal potency to release either FSH or LH
same,FSH (ng/ml),[1]; [14],**178.2 ± 17.0 ng/ml
same,FSH (ng/ml),[1]; [15],*164.0 ± 29.3 ng/ml
same,LH release in vitro (result in words),[3],inactive; also recorded: minimal potency to release either FSH or LH
same,LH,[3]; [17],120.4 ± 8.1 ng/mL
same,LH,[3]; [18],134.1 ± 23.2 ng/mL
